For data set [1], the system named is endogenous NKX3.1 in LNCaP cells. In words: Endogenous NKX3.1 half-life in LNCaP cells exposed to cycloheximide, immunoblot. Type of data set: cell-based, human. (In western blotting, separated proteins are transferred to a membrane and probed.)
In another data set the test system is DYRK1B. As to conditions: Target DYRK1B; NCGC compounds; cited from earlier work.
Data set [2] addresses DYRK and CLK family kinases. The note with it: cited from earlier work.

The source of these data is article PMC4511920 (Molecular cancer research : MCR, 2015).

One may read the IC50 as the concentration that inhibits the measured activity by half.

Consider `Cc1nc(CN(C)c2ncnc3ccc(-c4ccc5c(c4)OCO5)cc23)cs1` [NCGC00185981], for which the “Effect on NKX3.1 half-life / degradation (in words)” value in data set [1] was “most active compound”. Also, the IC50 in the data set with DYRK1B is 25 nM. Also, the “Kinase specificity (in words)” value in data set [2] was “specificity against both DYRK and CLK family kinases”.
With `Cc1nc(CNc2ncnc3ccc(-c4ccc5c(c4)OCO5)cc23)cs1` [NCGC00185963], the IC50 with DYRK1B is 1510 nM.
With `c1coc(CCNc2ncnc3ccc(-c4ccc5c(c4)OCO5)cc23)c1` [NCGC00185976], in the data set on DYRK1B, the concentration for half-maximal inhibition (IC50) was 103 nM.
Regarding `CN(Cc1cccs1)c1ncnc2ccc(-c3ccc4c(c3)OCO4)cc12` [NCGC00185984], the concentration for half-maximal inhibition (IC50) in the data set on DYRK1B was 72 nM. For the same compound, the “Kinase specificity (in words)” value in data set [2] is “no specificity for CLK kinases”.
